± gives the standard deviation of the averaged measurements.
Columns and labels:
Experiment in all cases: normalised growth rate inhibition (GR value) relative to DMSO control (GR (1 = untreated growth, 0 = cytostasis, <0 = cytotoxic)); higher = less growth inhibition
Conditions in all cases: 72 h
MDAMB231 = tested on: MDAMB231
Experimental: (§1)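 Breast cancer cell lines (BT-20, Hs 578T, MCF 10A, MCF7, MDA-MB-231, SK-BR-3) were plated in 384-well plates and treated 24 h later with drugs at six concentrations (0.04-10 µM). Viable cells were counted by Hoechst/dead-cell-stain imaging at 0 and 72 h. Counts were normalised to DMSO controls on the same plate to give the relative cell count and the growth-rate inhibition (GR) value; technical plate triplicates were averaged for each biological replicate.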

SKBR3 = tested on: SKBR3
Experimental: as §1

HS578T = tested on: HS578T
Experimental: as §1

MCF10A = tested on: MCF10A
Experimental: as §1

BT20 = tested on: BT20
Experimental: as §1

MCF7 = tested on: MCF7
Experimental: as §1

SMILES	normalised growth rate inhibition (MDAMB231; 0.04 µM)	normalised growth rate inhibition (MDAMB231; 0.12 µM)	normalised growth rate inhibition (MDAMB231; 0.37 µM)	normalised growth rate inhibition (MDAMB231; 1.11 µM)	normalised growth rate inhibition (MDAMB231; 3.33 µM)	normalised growth rate inhibition (MDAMB231; 10 µM)	normalised growth rate inhibition (SKBR3; 0.04 µM)	normalised growth rate inhibition (SKBR3; 0.12 µM)	normalised growth rate inhibition (SKBR3; 0.37 µM)	normalised growth rate inhibition (SKBR3; 1.11 µM)	normalised growth rate inhibition (SKBR3; 3.33 µM)	normalised growth rate inhibition (SKBR3; 10 µM)	normalised growth rate inhibition (HS578T; 0.04 µM)	normalised growth rate inhibition (HS578T; 0.12 µM)	normalised growth rate inhibition (HS578T; 0.37 µM)	normalised growth rate inhibition (HS578T; 1.11 µM)	normalised growth rate inhibition (HS578T; 3.33 µM)	normalised growth rate inhibition (HS578T; 10 µM)	normalised growth rate inhibition (MCF10A; 0.04 µM)	normalised growth rate inhibition (MCF10A; 0.12 µM)	normalised growth rate inhibition (MCF10A; 0.37 µM)	normalised growth rate inhibition (MCF10A; 1.11 µM)	normalised growth rate inhibition (MCF10A; 3.33 µM)	normalised growth rate inhibition (MCF10A; 10 µM)	normalised growth rate inhibition (BT20; 0.04 µM)	normalised growth rate inhibition (BT20; 0.12 µM)	normalised growth rate inhibition (BT20; 0.37 µM)	normalised growth rate inhibition (BT20; 1.11 µM)	normalised growth rate inhibition (BT20; 3.33 µM)	normalised growth rate inhibition (BT20; 10 µM)	normalised growth rate inhibition (MCF7; 0.04 µM)	normalised growth rate inhibition (MCF7; 0.12 µM)	normalised growth rate inhibition (MCF7; 0.37 µM)	normalised growth rate inhibition (MCF7; 1.11 µM)	normalised growth rate inhibition (MCF7; 3.33 µM)	normalised growth rate inhibition (MCF7; 10 µM)
Cn1cnc2c(F)c(Nc3ccc(Br)cc3Cl)c(C(=O)NOCCO)cc21 [selumetinib]	0.846 ± 0.078	0.702 ± 0.097	0.545 ± 0.088	0.458 ± 0.068	0.36 ± 0.068	0.2 ± 0.083	1.139 ± 0.0015	1.037 ± 0.0086	1.044 ± 0.0095	1.02 ± 0.052	1.02 ± 0.033	0.969 ± 0.034	0.636 ± 0.094	0.53 ± 0.1	0.471 ± 0.068	0.428 ± 0.055	0.369 ± 0.036	0.26 ± 0.056	0.598 ± 0.026	0.455 ± 0.053	0.36 ± 0.056	0.281 ± 0.053	0.25 ± 0.041	0.177 ± 0.042	1.11 ± 0.084	1.03 ± 0.099	0.999 ± 0.059	1.01 ± 0.061	0.974 ± 0.093	0.975 ± 0.081	0.867 ± 0.13	0.696 ± 0.071	0.568 ± 0.062	0.543 ± 0.072	0.575 ± 0.063	0.524 ± 0.024
CO[C@H]1C[C@@H]2CC[C@@H](C)[C@@](O)(O2)C(=O)C(=O)N2CCCC[C@H]2C(=O)O[C@H]([C@H](C)C[C@@H]2CC[C@@H](O)[C@H](OC)C2)CC(=O)[C@H](C)/C=C(\C)[C@@H](O)[C@@H](OC)C(=O)[C@H](C)C[C@H](C)/C=C/C=C/C=C/1C [sirolimus]	0.802 ± 0.049	0.781 ± 0.039	0.812 ± 0.048	0.787 ± 0.042	0.784 ± 0.07	0.8 ± 0.087	0.47 ± 0.069	0.449 ± 0.056	0.405 ± 0.12	0.389 ± 0.09	0.366 ± 0.082	0.353 ± 0.1	0.629 ± 0.089	0.619 ± 0.048	0.619 ± 0.055	0.632 ± 0.072	0.621 ± 0.066	0.62 ± 0.09	0.982 ± 0.074	0.999 ± 0.069	0.995 ± 0.082	0.997 ± 0.077	1 ± 0.089	0.986 ± 0.087	0.54 ± 0.03	0.514 ± 0.062	0.522 ± 0.056	0.524 ± 0.067	0.536 ± 0.061	0.587 ± 0.043	0.502 ± 0.075	0.502 ± 0.07	0.486 ± 0.048	0.49 ± 0.08	0.495 ± 0.048	0.456 ± 0.096
CNC(=O)c1cc(Oc2ccc(NC(=O)Nc3ccc(Cl)c(C(F)(F)F)c3)cc2)ccn1 [sorafenib]	1.01 ± 0.045	0.917 ± 0.13	0.927 ± 0.11	0.938 ± 0.18	0.918 ± 0.13	0.801 ± 0.12	0.908 ± 0.048	0.954 ± 0.093	0.993 ± 0.07	1.03 ± 0.074	1.04 ± 0.084	0.212 ± 0.27	1.13 ± 0.076	1.14 ± 0.061	1.16 ± 0.098	1.18 ± 0.12	1.15 ± 0.11	0.874 ± 0.093	1.02 ± 0.046	0.993 ± 0.048	0.978 ± 0.047	0.97 ± 0.034	0.95 ± 0.038	0.65 ± 0.1	0.936 ± 0.017	0.931 ± 0.023	0.855 ± 0.052	0.849 ± 0.036	0.836 ± 0.026	0.429 ± 0.35	0.946 ± 0.023	0.91 ± 0.057	0.936 ± 0.028	0.906 ± 0.072	0.852 ± 0.089	0.247 ± 0.12
CCC(=O)N1CCN(c2ccc(-n3c(=O)ccc4cnc5ccc(-c6cnc7ccccc7c6)cc5c43)cc2C(F)(F)F)CC1 [torin-1]	0.464 ± 0.038	0.339 ± 0.053	0.243 ± 0.073	0.178 ± 0.051	0.116 ± 0.055	-0.0316 ± 0.1	0.0209 ± 0.19	-0.0144 ± 0.18	-0.0642 ± 0.15	-0.11 ± 0.18	-0.161 ± 0.17	-0.218 ± 0.19	0.267 ± 0.069	0.213 ± 0.075	0.163 ± 0.086	0.0994 ± 0.083	0.0438 ± 0.084	-0.093 ± 0.14	0.529 ± 0.13	0.304 ± 0.042	0.198 ± 0.017	0.161 ± 0.026	0.156 ± 0.006	0.0917 ± 0.027	0.271 ± 0.076	0.11 ± 0.081	0.0128 ± 0.054	-0.0682 ± 0.033	-0.152 ± 0.025	-0.251 ± 0.026	0.166 ± 0.044	0.119 ± 0.024	0.082 ± 0.038	0.0141 ± 0.045	-0.0224 ± 0.046	-0.068 ± 0.033
Nc1ccc(-c2ccc3ncc4ccc(=O)n(-c5cccc(C(F)(F)F)c5)c4c3c2)cn1 [torin-2]	0.225 ± 0.084	0.135 ± 0.11	0.0529 ± 0.1	0.0249 ± 0.13	-0.112 ± 0.36	-0.199 ± 0.18	-0.135 ± 0.11	-0.132 ± 0.11	-0.158 ± 0.11	-0.168 ± 0.13	-0.21 ± 0.077	-0.286 ± 0.19	0.192 ± 0.058	0.0992 ± 0.089	-0.0345 ± 0.13	-0.0453 ± 0.13	-0.0773 ± 0.12	-0.135 ± 0.14	0.169 ± 0.23	0.111 ± 0.1	0.0505 ± 0.063	0.0367 ± 0.05	0.0667 ± 0.053	0.0215 ± 0.048	-0.0219 ± 0.046	-0.0695 ± 0.021	-0.128 ± 0.077	-0.218 ± 0.081	-0.287 ± 0.077	-0.251 ± 0.1	-0.0044 ± 0.038	-0.0152 ± 0.09	-0.0495 ± 0.065	-0.0476 ± 0.037	-0.0446 ± 0.024	-0.111 ± 0.026
Cc1cc(Nc2cc(N3CCN(C)CC3)nc(Sc3ccc(NC(=O)C4CC4)cc3)n2)n[nH]1 [tozasertib]	0.0769 ± 0.023	0.056 ± 0.045	0.0918 ± 0.037	0.0708 ± 0.039	0.0979 ± 0.038	0.1 ± 0.13	-0.143 ± 0.11	-0.117 ± 0.076	-0.0975 ± 0.11	-0.082 ± 0.1	-0.0918 ± 0.1	-0.044 ± 0.1	0.123 ± 0.11	0.0776 ± 0.12	0.108 ± 0.13	0.0732 ± 0.11	0.105 ± 0.12	0.0498 ± 0.077	0.395 ± 0.2	0.145 ± 0.087	0.124 ± 0.056	0.118 ± 0.064	0.0967 ± 0.04	0.0692 ± 0.053	0.385 ± 0.12	0.0628 ± 0.1	-0.0205 ± 0.094	-0.0318 ± 0.12	-0.0355 ± 0.11	-0.0179 ± 0.11	0.0704 ± 0.017	0.0656 ± 0.024	0.0723 ± 0.044	0.0794 ± 0.022	0.0768 ± 0.026	0.0394 ± 0.0083

From the supplement of paper PMC5662764
